# Tested on: leukemia cells
# Assay: Apoptosis of leukemia cells by Annexin V/PI staining
# Type: cell-based, human
# Settings: 0 - 400 nM, 24 hours; PBMCs from patients with CLL (n = 6)
# Procedure: Cell viability and apoptosis were evaluated by double-staining with the mitochondrial inner transmembrane potential (ΔΨm)-sensitive dye DiOC6(3) (3,3'-dihexyloxacarbocyanine iodide; Sigma-Aldrich) and the exclusion dye propidium iodide (PI; Immunostep), allowing identification of apoptotic [DiOC6(3)^low PI^-] and dead [PI^+] cells as per Proc. Natl. Acad. Sci. U.S.A. (2014) 111(8):3020-3025 and Methods Mol. Biol. (2016) 1419:1-16. Briefly, PBMCs were resuspended in culture medium containing 20 nM DiOC6(3) and incubated for 30 minutes at 37 °C. Then, PI (1 µg/mL) was added and cells were further incubated for 10 minutes at room temperature (RT). Cells were analyzed by flow cytometry considering DiOC6(3)^+PI^- cells as viable. In some experiments, apoptosis was evaluated by staining with Annexin V/PI. […]
# The induction of caspase-dependent apoptosis on primary CLL cells by EC-7072 was assessed by: • (i) incubating PBMCs isolated from patients with CLL (n = 6) following treatment with increasing concentrations of EC-7072 (0 - 400 nM) for 24 hours. Apoptosis of leukemia cells was evaluated by cytofluorometric assessment of Annexin V/PI staining to obtain percentages of apoptotic [Annexin V^+ PI^-] and dead [PI^+] cells (Figure 3A); • (ii) incubating PBMCs and T cells isolated from patients with CLL (n = 3) following treatment with EC-7072 (200 nM) for 24 hours. […]
smiles,measurement,value
"CO[C@@H]([C@@H]1Cc2cc3cc(O[C@H]4C[C@@H](O[C@H]5C[C@@H](O)[C@H](O)[C@@H](C)O5)[C@H](O)[C@@H](C)O4)c(C)c(O)c3c(O)c2C(=O)[C@H]1O[C@H]1C[C@@H](O[C@H]2C[C@@H](O[C@H]3C[C@](C)(O)[C@H](O)[C@@H](C)O3)[C@@H](O)[C@@H](C)O2)[C@H](O)[C@@H](C)O1)[C@@H](O)C(C)=O [EC-7072, mithramycin SK]",apoptosis of leukemia cells (Annexin V/PI),significantly induces CLL cell apoptosis

# Reference: EP3797781A1, “USE OF EC-7072 AND SYNERGIC COMPOSITIONS THEREOF IN TREATMENT OF CHRONIC LYMPHOCYTIC LEUKEMIA” (priority 2019, dated 2021)
